Tests used:
[1] = biological target: T1, 125I-BH-eledoisin binding sites in rat brain cortex membranes (Rattus norvegicus, UniProt P16177); experiment: eledoisin binding assay (competition for 125I-BH-eledoisin binding sites); conditions: peptides dissolved in DMSO
T1 construct: from tissue; host or cells: rat brain cortex membranes
T1 sequence (P16177 1-452): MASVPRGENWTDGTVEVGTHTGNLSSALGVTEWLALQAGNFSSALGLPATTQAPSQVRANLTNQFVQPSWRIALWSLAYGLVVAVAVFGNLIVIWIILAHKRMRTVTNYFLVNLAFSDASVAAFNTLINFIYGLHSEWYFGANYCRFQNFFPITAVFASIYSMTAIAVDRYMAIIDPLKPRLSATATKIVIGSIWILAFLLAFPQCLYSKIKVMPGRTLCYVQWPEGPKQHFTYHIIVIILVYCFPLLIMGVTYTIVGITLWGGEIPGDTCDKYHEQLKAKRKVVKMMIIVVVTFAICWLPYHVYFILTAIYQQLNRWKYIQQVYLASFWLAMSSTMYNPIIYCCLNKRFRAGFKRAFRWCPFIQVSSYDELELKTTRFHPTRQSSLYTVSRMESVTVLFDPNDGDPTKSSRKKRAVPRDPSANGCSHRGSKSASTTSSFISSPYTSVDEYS
Procedure: (§1) Representative compounds of this invention were tested in the substance P (SP) and eledoisin binding assays. The peptides were dissolved in DMSO and tested for their abilities to compete for ^125 I-BH-SP and ^125 I-BH-eledoison binding sites in rat brain cortex membranes (Cascieri and Liang, J. Biol. Chem., 258, 5158 (1983); Life Sciences, 35, 179 (1984)).
(§2) The following table summarizes the IC50 data obtained in both assay systems as well as showing the IC50 ratio for each peptide in the SP and eledoisin binding assays.

[2] = biological target: T2, 125I-BH-SP binding sites in rat brain cortex membranes (Rattus norvegicus, UniProt P14600); experiment: substance P (SP) binding assay (competition for 125I-BH-SP binding sites); conditions: peptides dissolved in DMSO
T2 construct: from tissue; host or cells: rat brain cortex membranes
T2 sequence (P14600 whole entry): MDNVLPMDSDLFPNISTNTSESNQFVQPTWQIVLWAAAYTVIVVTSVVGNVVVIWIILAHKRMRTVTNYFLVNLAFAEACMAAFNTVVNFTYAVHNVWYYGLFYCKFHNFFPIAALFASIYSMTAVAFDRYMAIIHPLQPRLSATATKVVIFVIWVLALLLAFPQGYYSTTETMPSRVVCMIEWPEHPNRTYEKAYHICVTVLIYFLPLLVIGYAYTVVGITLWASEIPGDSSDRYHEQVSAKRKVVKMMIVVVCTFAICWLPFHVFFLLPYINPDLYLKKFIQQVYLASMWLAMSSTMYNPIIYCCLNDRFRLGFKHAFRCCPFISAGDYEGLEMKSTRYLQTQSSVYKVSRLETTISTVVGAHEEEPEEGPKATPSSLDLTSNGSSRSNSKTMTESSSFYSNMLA
Procedure: as §1, §2

Compound | IC50 [1] | IC50 [2]
CSCC[C@H](NC(=O)[C@H](CC(C)C)N1CC[C@H](NC(=O)[C@H](Cc2ccccc2)NC(=O)[C@H](Cc2ccccc2)NC(=O)[C@@H]2CCC(=O)N2)C1=O)C(N)=O [L-363,232] | 32 µM | 60 µM
CSCC[C@H](NC(=O)[C@H](CC(C)C)N1CC[C@@H](NC(=O)[C@H](Cc2ccccc2)NC(=O)[C@H](Cc2ccccc2)NC(=O)[C@@H]2CCC(=O)N2)C1=O)C(N)=O [L-363,851, Pyroglutamyl-phenylalanyl-phenylalanyl-[(R)-3-amino-2-oxo-1-pyrrolidine-(S)-4-methyl-2-pentanoyl]-methionine amide] | 0.014 µM | 13 µM

— patent US4680283A, “Analogs of substance P and eledoisin” (Merck & Co., Inc., priority 1986, dated 1987)
